# Literature values as cited in patent EP1911850A1, “Method of producing 6-thio-sialylated glycoproteins and glycoconjugates” (CENTRE NATIONAL DE LA RECHERCHE SCIENTIFIQUE (CNRS), priority 2006, dated 2008).
# System: a galactosidase
# Settings: background statement; comparator not stated
smiles,measurement,value
CC(=O)N[C@H]1C(O)O[C@H](CO)[C@@H](O[C@@H]2S[C@H](CO)[C@H](O)[C@H](O)[C@H]2O)[C@@H]1O (stereo partly shown) [5'-Thio-N-acetyllactosamine],increased stability to digestion by a galactosidase,200 fold
